Test results: PubChem BioAssay (NCI)
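A five-concentration, 48-hour dose response in 96-well plates underlies each endpoint, interpolated linearly between surrounding concentrations. GI50 marks 50% less growth. TGI denotes the concentration required for complete inhibition of growth.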

Columns and labels:
Assay in all cases: DTP human tumour cell line panel, 48 h
DMS 114 small cell lung = tested on: DMS 114 small cell lung
KM20L2 colon = tested on: KM20L2 colon
SK-MEL-5 melanoma = tested on: SK-MEL-5 melanoma
EKVX NSCLC = tested on: EKVX NSCLC
RPMI-8226 leukemia = tested on: RPMI-8226 leukemia
DLD-1 colon = tested on: DLD-1 colon
HOP-18 NSCLC = tested on: HOP-18 NSCLC
OVCAR-8 ovarian = tested on: OVCAR-8 ovarian
OVCAR-5 ovarian = tested on: OVCAR-5 ovarian
MALME-3M melanoma = tested on: MALME-3M melanoma
NCI/ADR-RES ovarian = tested on: NCI/ADR-RES ovarian
DMS 273 small cell lung = tested on: DMS 273 small cell lung

Row | Structure (SMILES) | TGI (DMS 114 small cell lung) | TGI (KM20L2 colon) | TGI (SK-MEL-5 melanoma) | TGI (EKVX NSCLC) | TGI (RPMI-8226 leukemia) | TGI (DLD-1 colon) | TGI (HOP-18 NSCLC) | TGI (OVCAR-8 ovarian) | TGI (OVCAR-5 ovarian) | TGI (MALME-3M melanoma) | TGI (NCI/ADR-RES ovarian) | TGI (DMS 273 small cell lung) | GI50 (SK-MEL-5 melanoma) | GI50 (EKVX NSCLC) | GI50 (RPMI-8226 leukemia) | GI50 (NCI/ADR-RES ovarian) | GI50 (OVCAR-5 ovarian) | GI50 (MALME-3M melanoma) | GI50 (OVCAR-8 ovarian)
1 | CCOC(=O)C1=C(C)N(C2OC(COC(=O)c3ccccc3)C(OC(=O)c3ccccc3)C2OC(=O)c2ccccc2)C(=S)NC1c1ccccc1 (stereo not drawn) | 97.2 µM | > 100 µM | 42.8 µM | 62.2 µM | 45.2 µM | > 100 µM | > 100 µM | > 100 µM | > 100 µM | 78.8 µM | – | – | – | – | – | – | – | – | –
2 | C(=C/c1nc2ccccc2o1)/c1ccc2c(c1)OCO2 | > 100 µM | > 53 µM | 56.6 µM | > 100 µM | > 100 µM | > 100 µM | 60.8 µM | > 100 µM | > 100 µM | > 95.9 µM | 39.5 µM | > 37.5 µM | – | – | – | – | – | – | –
3 | CN/N=C(\C(=O)Nc1ccc(C)c(C)c1)C(C(=O)OC)c1nc2ccc([N+](=O)[O-])cc2[nH]c1=O (stereo not drawn) | > 100 µM | > 100 µM | > 100 µM | > 100 µM | > 100 µM | > 100 µM | – | > 100 µM | > 100 µM | – | – | > 100 µM | – | – | – | – | – | – | –
4 | CCOC(C)OC1CC(n2cc(C)c(=O)[nH]c2=O)OC1CO (stereo not drawn) | > 100 µM | > 100 µM | – | > 100 µM | > 100 µM | > 100 µM | > 100 µM | > 100 µM | > 100 µM | > 100 µM | – | > 100 µM | – | – | – | – | – | – | –
5 | C=C(C)[C@@H]1CC[C@]2(CO)CC[C@]3(C)[C@H](CC[C@@H]4[C@@]5(C)CC[C@H](NCO)C(C)(C)[C@@H]5CC[C@]43C)[C@@H]12 | – | – | 1.59 µM | 1.64 µM | 2.5 µM | – | – | – | 1.56 µM | 1.53 µM | 1.72 µM | – | 0.87 µM | 0.869 µM | 0.934 µM | 0.894 µM | 0.85 µM | 0.792 µM | –
6 | CCOC(=O)C(C)N1C(=O)c2ccccc2S1(=O)=O (stereo not drawn) | > 100 µM | – | > 100 µM | > 100 µM | > 100 µM | > 100 µM | > 100 µM | > 100 µM | > 100 µM | > 100 µM | > 100 µM | > 100 µM | – | – | – | – | – | – | –
7 | C=C(C)[C@@H]1CC[C@]2(C(=O)NC(C)=O)CC[C@]3(C)[C@H](CC[C@@H]4[C@@]5(C)CCCNC(C)(C)[C@@H]5CC[C@]43C)[C@@H]12 | – | – | 3.15 µM | 3.23 µM | 3.4 µM | – | – | – | 2.88 µM | 2.65 µM | 3.68 µM | – | 1.76 µM | 1.6 µM | 1.18 µM | 1.83 µM | 1.53 µM | 1.34 µM | –
8 | CN1CN(C(=O)N2CN(C)C(=O)N(C)C2)CN(C)C1=O | > 100 µM | > 100 µM | – | > 100 µM | > 100 µM | > 100 µM | > 100 µM | > 100 µM | > 100 µM | > 100 µM | – | – | – | – | – | – | – | – | –
9 | NC(=O)Oc1ccccc1 | – | – | > 100 µM | – | – | – | – | > 100 µM | – | – | > 100 µM | – | – | – | – | – | – | – | –
10 | O=C(CCC1CCCCN1)Nc1ccc2c(c1)C(=O)c1ccc(NC(=O)CCN3CCCCC3)cc1C2=O (stereo not drawn) | 2.97 µM | 14.5 µM | 3.27 µM | – | – | 6.37 µM | 9.77 µM | 9.73 µM | 11.2 µM | 2.81 µM | – | 7.55 µM | – | – | – | – | – | – | –
11 | CCOC(=O)Cn1c(=O)c(C)cn(COCCO)c1=O | – | – | > 100 µM | > 100 µM | > 100 µM | – | – | > 100 µM | > 100 µM | > 100 µM | > 100 µM | – | – | – | – | – | – | – | –
12 | COc1ccc(C2=NC(c3ccc(Cl)cc3)C(c3ccc(Cl)cc3)N2C(=O)N2CCNC(=O)C2)c(OC(C)C)c1 (stereo not drawn) | – | – | 3.39 µM | 4.18 µM | > 10 µM | – | – | 6.14 µM | 5.54 µM | – | 3.83 µM | – | 1.76 µM | 2.08 µM | 3.58 µM | 1.92 µM | 2.23 µM | – | 2.46 µM
13 | CC1OC(=O)C(C(C)C)NC(=O)C(C(C)C)OC(=O)C(C(C)C)NC(=O)C(C)OC(=O)C(C(C)C)NC(=O)C(C(C)C)OC(=O)C(C(C)C)NC(=O)C(C)OC(=O)C(C(C)C)NC(=O)C(C(C)C)OC(=O)C(C(C)C)NC1=O (stereo not drawn) | 0.0191 µM | 0.493 µM | – | – | 0.0158 µM | 2.05 µM | 0.0539 µM | 3.46 µM | – | 3.63 µM | 0.117 µM | 0.0141 µM | – | < 0.0001 µM | – | 0.0129 µM | – | – | < 0.0001 µM
